Patent US8329645B2, “Polymyxin derivatives and uses thereof” (priority 2008, dated 2012)
Read-outs that look alike come from different tables or passages of the source. Where a SMILES comes first, the peptide text is derived from it. Bridges are numbered along the chain shown (N, C = ends). [ ]: non-standard residue; d: D form. The star is where a group is joined. Octanoyl = CCCCCCCC(=O)*; Dab = NCC[C@H](N)C(=O)O

Key:
[1] = tested on: E. coli F18; format: cell-based, Escherichia coli
Experimental: The MIC values of NAB 739, NAB 740, and NAB7061 were determined by using the agar dilution method according to the CLSI protocol M7-A7. Polymyxin B sulfate (Sigma-Aldrich, St. Louis, Mo., USA) was used as a control. […]; two-fold increments) of the test substances were used. The bacterial test strains originated from ATCC (10 strains), CCUG (11 strains), and NCTC (3 strains). Fourteen (14) strains (the F-strains) were purchased from Mobidiag Ltd., Helsinki, Finland. Besides bacteria, the MIC was also determined for the yeast Candida albicans (ATCC 28366 from ATCC).
(§1) The inocula were prepared by adjusting the bacterial suspensions to a density equivalent to OD546 nm˜0.3 (˜10^8 CFU/ml˜0.5 McFarland) the yeast suspension to a density equivalent to OD546 nm˜0.75 (˜2×10^7 CFU/ml)._The suspensions were diluted to 10^7 CFU/ml. The plates were inoculated by using a Denley Multipoint Inoculator, 1 μl per spot corresponding to approx. 10^4 CFU/spot. Plates were incubated for 16-20 hours at 35° C.

[2] = tested on: E. coli F10
Experimental: (§2) Polymyxin B sulfate (Sigma-Aldrich, St. Louis, Mo., USA) was used as a control. […] The bacterial test strains originated from ATCC (10 strains), CCUG (11 strains), and NCTC (3 strains). Fourteen (14) strains (the F-strains) were purchased from Mobidiag Ltd., Helsinki, Finland.
as §1

[3] = tested on: E. cloacae CCUG 52947
Experimental: as §2, §1

[4] = tested on: E. cloacae ATCC 23355
Experimental: as §2, §1

[5] = tested on: K. oxytoca ATCC 13182
Experimental: as §2, §1

[6] = tested on: E. coli NCTC 13352
Experimental: as §2, §1

[7] = tested on: E. coli CCUG 41427
Experimental: as §2, §1

[8] = tested on: S. marcescens ATCC 8100
Experimental: as §2, §1

[9] = tested on: E. coli F9
Experimental: as §2, §1

[10] = tested on: K. pneumoniae F136
Experimental: as §2, §1

[11] = tested on: A. baumannii F263
Experimental: as §2, §1

[12] = tested on: P. aeruginosa ATCC 27853
Experimental: as §2, §1

[13] = tested on: E. coli CCUG 41429
Experimental: as §2, §1

[14] = tested on: E. coli F19
Experimental: as §2, §1

[15] = tested on: E. coli F8
Experimental: as §2, §1

[16] = tested on: A. baumannii ATCC 19606
Experimental: as §2, §1

[17] = tested on: E. cloacae F230
Experimental: as §2, §1

[18] = tested on: E. coli IH3080
Experimental: as §2, §1

[19] = tested on: S. aureus ATCC 25923
Experimental: as §2, §1

[20] = tested on: E. coli CCUG 41425
Experimental: as §2, §1

[21] = tested on: P. aeruginosa F58
Experimental: as §2, §1

[22] = tested on: E. cloacae F231
Experimental: as §2, §1

[23] = tested on: C. albicans ATCC 28366
Experimental: as §2, §1

[24] = tested on: E. coli CCUG 41424
Experimental: as §2, §1

[25] = tested on: E. coli CCUG 41422
Experimental: as §2, §1

[26] = tested on: P. aeruginosa CCUG 51971
Experimental: as §2, §1

[27] = tested on: K. pneumoniae F145
Experimental: as §2, §1

[28] = tested on: E. coli IH3080; test: Growth inhibition around wells on LB agar plates; format: cell-based, Escherichia coli; settings: 4 μg of compound per well, listed as Polymyxin B sulfate
Procedure, shortened: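 Growth inhibition of encapsulated E. coli IH3080 (K1:O018) was assessed on LB agar plates. A suspension of about 10^8 cells/ml in 0.9% NaCl, made from an overnight LB agar culture, was spread across the plate surface and the excess removed. After drying, 2 mm wells were drilled, with 0.9% NaCl as control. Following 18 h at 37° C., inhibition zone diameters around wells were converted to areas in square mm.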

[29] = tested on: K. pneumoniae CCUG 45421; settings: K. pneumoniae CCUG45421
Experimental: as §2, §1

CCCCCCCC(=O)N[C@H](C(=O)N[C@H](CO)C(=O)N[C@H]1CCNC(=O)[C@H]([C@@H](C)O)NC(=O)[C@H](CCN)NC(=O)[C@H](CCN)NC(=O)[C@H](CC(C)C)NC(=O)[C@@H](Cc2ccccc2)NC(=O)[C@H](CCN)NC1=O)[C@@H](C)O [NAB 739, OA-Thr-DSer-cy[Dab-Dab-DPhe-Leu-Dab-Dab-Thr-]] (Octanoyl-T[dS][Dab][Dab][dF]L[Dab][Dab]T; lactam 3-C)
>32 µg/mL: MIC ([8]; ATCC 8100) | MIC ([19]; ATCC 25923) | MIC ([23]; ATCC 28366)
0.5 µg/mL: MIC ([14]; F19)
8 µg/mL: MIC ([12]; ATCC 27853) | MIC ([16]; ATCC 19606) | MIC ([21]; F58) | MIC [26]
4 µg/mL: MIC ([11]; F263)
2 µg/mL: MIC ([3]; CCUG 52947) | MIC ([4]; ATCC 23355) | MIC ([5]; ATCC 13182) | MIC ([17]; F230) | MIC ([22]; F231) | MIC ([27]; F145)
1 µg/mL: MIC [1] | MIC ([2]; F10) | MIC ([6]; NCTC 13352) | MIC ([7]; CCUG 41427) | MIC ([9]; F9) | MIC ([10]; F136) | MIC ([13]; CCUG 41429) | MIC ([15]; F8) | MIC ([18]; IH3080) | MIC ([20]; CCUG 41425) | MIC ([24]; CCUG 41424) | MIC [25]

Polymyxin B [reference compound]
>32 µg/mL: MIC ([8]; S. marcescens ATCC8100) | MIC ([19]; S. aureus ATCC 25923) | MIC ([23]; C. albicans ATCC 28366)
0.25 µg/mL: MIC ([6]; E. coli NCTC 13352)
95 square millimeters: growth inhibition around a well [28]
1 µg/mL: MIC ([3]; E. cloacae CCUG52947) | MIC ([7]; E. coli CCUG41427) | MIC ([11]; A. baumannii F263) | MIC ([12]; P. aeruginosa ATCC27853) | MIC ([13]; E. coli CCUG41429) | MIC ([14]; E. coli F19) | MIC ([15]; E. coli F8) | MIC ([16]; A. baumannii ATCC 19606) | MIC [29] | MIC ([24]; E. coli CCUG41424)
0.5 µg/mL: MIC [1] | MIC ([2]; E. coli F10) | MIC ([4]; E. cloacae ATCC23355) | MIC ([5]; K. oxytoca ATCC13182) | MIC ([9]; E. coli F9) | MIC ([10]; K. pneumoniae F136) | MIC ([17]; E. cloacae F230) | MIC ([18]; E. coli IH3080) | MIC ([20]; E. coli CCUG41425) | MIC ([21]; P. aeruginosa F58) | MIC ([22]; E. cloacae F231) | MIC ([27]; K. pneumoniae F145)
